For one experiment, the target named is T1, human AT1 receptor (Homo sapiens, UniProt P30556).
T1 construct: expressed in transfected cells; host or cells: CHO-K1
T1 sequence (P30556 1-359): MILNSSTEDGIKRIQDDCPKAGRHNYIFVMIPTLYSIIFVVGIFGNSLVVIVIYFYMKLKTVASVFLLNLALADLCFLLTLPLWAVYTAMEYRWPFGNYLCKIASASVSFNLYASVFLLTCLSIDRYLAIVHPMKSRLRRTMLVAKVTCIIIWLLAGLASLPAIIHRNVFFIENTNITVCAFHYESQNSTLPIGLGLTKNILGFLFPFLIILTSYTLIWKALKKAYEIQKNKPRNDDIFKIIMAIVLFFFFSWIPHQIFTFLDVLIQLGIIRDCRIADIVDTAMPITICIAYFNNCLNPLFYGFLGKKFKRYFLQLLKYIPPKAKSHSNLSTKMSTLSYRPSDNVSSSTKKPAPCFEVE
In words: AT1 radioligand binding assay (displacement of [Eu]AngII). The note with it: membranes of CHO-K1 cells expressing cloned human AT1 receptor; values given as lower bounds; read-out: AT1 pKi (converted). In outline: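 Membranes from CHO-K1 cells stably expressing cloned human AT1, 0.2 μg protein, in 50 mM Tris/HCl pH 7.5, 5 mM MgCl2, 0.025% BSA. Compounds displaced [Eu]AngII over 120 min in the dark at room temperature or 37° C; filter-bound TRF read. Nonspecific binding with 10 μM angiotensin II; IC50 converted to Ki via Cheng-Prusoff, reported as pKi.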

The target of a further experiment is T2, NEP enzyme (Homo sapiens, UniProt P08473).
T2 construct: purchased R&D Systems, Minneapolis, Minn; 1182-ZN
Description: NEP enzyme inhibition assay (fluorogenic peptide substrate). It counts as biochemical. The note with it: values given as lower bounds; * = prodrugs, may not exhibit NEP activity in an in vitro assay; read-out: NEP pIC50 (converted). In outline: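 Recombinant human NEP was run with Mca-BK2 (10 μM) at room temperature in Tris buffer with 1 μM Zn. Compounds (10 μM–20 pM, 12 points) were pre-equilibrated 10 min, then reacted 20 min and acid-stopped. Fluorescence ex 320/em 405 nm, one-site competition fit gives pIC50. Thiol compounds may be pre-treated with 400 μM TCEP.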

Each structure is given as a SMILES string.

T2 sequence (P08473 52-750 limits assumed): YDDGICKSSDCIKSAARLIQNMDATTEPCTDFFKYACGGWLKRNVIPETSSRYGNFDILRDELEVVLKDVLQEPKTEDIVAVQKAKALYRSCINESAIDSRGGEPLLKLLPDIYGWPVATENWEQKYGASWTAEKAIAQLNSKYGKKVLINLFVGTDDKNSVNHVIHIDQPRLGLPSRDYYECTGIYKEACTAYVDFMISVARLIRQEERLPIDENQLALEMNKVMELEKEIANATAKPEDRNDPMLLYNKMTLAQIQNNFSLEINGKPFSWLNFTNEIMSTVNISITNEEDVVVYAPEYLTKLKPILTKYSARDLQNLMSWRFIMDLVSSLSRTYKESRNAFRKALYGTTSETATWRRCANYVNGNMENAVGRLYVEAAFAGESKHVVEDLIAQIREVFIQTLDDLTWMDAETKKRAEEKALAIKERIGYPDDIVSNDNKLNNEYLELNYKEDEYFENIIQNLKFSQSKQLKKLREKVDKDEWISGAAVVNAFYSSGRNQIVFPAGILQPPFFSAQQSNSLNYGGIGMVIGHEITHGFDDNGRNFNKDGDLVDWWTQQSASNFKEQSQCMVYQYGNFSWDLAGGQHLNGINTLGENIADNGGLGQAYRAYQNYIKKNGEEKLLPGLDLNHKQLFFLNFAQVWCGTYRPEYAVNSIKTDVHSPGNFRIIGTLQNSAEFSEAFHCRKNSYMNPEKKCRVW

In the case of `CCCc1cc(C(=O)N[C@H](Cc2ccccc2Cl)[C@@H](O)C(=O)O)nn1Cc1ccc(-c2ccccc2-n2nn[nH]c2=O)cc1` [Example 16-6, (2R,3R)-4-(2-Chlorophenyl)-2-hydroxy-3-({1-[2′-(5-oxo-4,5-dihydrotetrazol-1-yl)biphenyl-4-ylmethyl]-5-propyl-1H-pyrazole-3-carbonyl}amino)butyric acid], the Ki at human AT1 receptor is not above 100 nM. Moreover, the IC50 at NEP enzyme is not above 100 nM.
For `CCCc1cc(C(=O)N[C@H](Cc2ccccc2)[C@@H](O)C(=O)O)nn1Cc1ccc(-c2ccccc2S(=O)(=O)NC(C)=O)c(F)c1` [Example 6-7, (2R,3R)-3-{[1-(2′-Acetylsulfamoyl-2-fluorobiphenyl-4-ylmethyl)-5-propyl-1H-pyrazole-3-carbonyl]amino}-2-hydroxy-4-phenylbutyric acid], the Ki on human AT1 receptor is not above 10 nM. Moreover, on NEP enzyme, the IC50 was not above 100 nM.
Turning to `CCCc1cc(C(=O)N[C@@H](CS)Cc2ccccc2)nn1Cc1ccc(-c2ccccc2-c2nnn[nH]2)nc1` [Example 14-2, 5-Propyl-1-{6-[2-(1H-tetrazol-5-yl)phenyl]pyridin-3-ylmethyl}-1H-pyrazole-3-carboxylic acid ((R)-1-benzyl-2-mercaptoethyl)amide], the Ki at human AT1 receptor was not above 10 nM. For the same compound, the IC50 at NEP enzyme is not above 100 nM.
Consider `CCOc1cc(C(=O)N[C@@H](CS)Cc2ccccc2)nn1Cc1ccc(-c2ccccc2C(=O)O)cc1F` [Example 9-2, 4′-[3-((R)-1-Benzyl-2-mercaptoethylcarbamoyl)-5-ethoxypyrazol-1-ylmethyl]-3′-fluorobiphenyl-2-carboxylic acid], for which the Ki at human AT1 receptor was not above 100 nM. In addition, the IC50 on NEP enzyme is not above 100 nM.
As for `CCOc1cc(C(=O)N[C@@H](CS)CC(C)C)nn1Cc1ccc(-c2ccccc2-c2nnn[nH]2)cc1` [Example 3-5, 5-Ethoxy-1-[2′-(1H-tetrazol-5-yl)biphenyl-4-ylmethyl]-1H-pyrazole-3-carboxylic acid ((R)-1-mercaptomethyl-3-methylbutyl)amide], the Ki at human AT1 receptor is not above 100 nM. The IC50 at NEP enzyme was not above 100 nM.
As to `CCCc1cc(C(=O)N[C@@H](CC(=O)O)Cc2ccccc2Cl)nn1Cc1cnc(-c2ccccc2-c2nnn[nH]2)cn1` [Example 17-2, (R)-4-(2-Chlorophenyl)-3-[(5-propyl-1-{5-[2-(1H-tetrazol-5-yl)phenyl]pyrazin-2-ylmethyl}-1H-pyrazole-3-carbonyl)amino]butyric acid], the Ki at human AT1 receptor is not above 10 nM. Also, the IC50 on NEP enzyme is not above 1000 nM.
The corresponding values for `CCCc1cc(C(=O)N[C@@H](CC(=O)O)Cc2ccccc2Cl)nn1Cc1ccc(-c2ccccc2-c2nnn[nH]2)cc1` [Example 3-34, (R)-4-(2-Chlorophenyl)-3-({5-propyl-1-[2′-(1H-tetrazol-5-yl)biphenyl-4-ylmethyl]-1H-pyrazole-3-carbonyl}amino)butyric acid] are not above 10 nM and not above 10000 nM.
For `CCCc1cc(C(=O)N[C@@H](CC(=O)O)Cc2ccccc2)nn1Cc1ccc(-c2ccccc2S(=O)(=O)NC(C)=O)cc1` [Example 6-28, (R)-3-{[1-(2′-Acetylsulfamoylbiphenyl-4-ylmethyl)-5-propyl-1H-pyrazole-3-carbonyl]amino}-4-phenylbutyric acid] the same measures were not above 10 nM and not above 10000 nM.
Consider `CCCc1cc(C(=O)N[C@H](Cc2ccccc2)[C@@H](O)C(=O)O)nn1Cc1cnc(-c2ccccc2-c2nnn[nH]2)cn1` [Example 17-3, (2R,3R)-3-(1-((5-(2-(1H-tetrazol-5-yl)phenyl)pyrazin-2-yl)methyl)-5-propyl-1H-pyrazole-3-carboxamido)-2-hydroxy-4-phenylbutanoic acid], for which the Ki at human AT1 receptor is not above 10 nM. Further, at NEP enzyme, the IC50 is not above 100 nM.
Turning to `CCCc1cc(C(=O)N[C@@H](CC(=O)O)Cc2ccccc2Cl)nn1Cc1ccc(-c2ccccc2-n2nn[nH]c2=O)cc1` [Example 16-5, (R)-4-(2-Chlorophenyl)-3-({1-[2′-(5-oxo-4,5-dihydrotetrazol-1-yl)-biphenyl-4-ylmethyl]-5-propyl-1H-pyrazole-3-carbonyl}amino)butyric acid], the Ki on human AT1 receptor was not above 10 nM. The IC50 at NEP enzyme was not above 1000 nM.
The corresponding values for `CCCc1cc(C(=O)N[C@@H](CC(=O)O)Cc2ccccc2Cl)nn1Cc1ccc(-c2ccccc2S(=O)(=O)NC(C)=O)cc1` [Example 6-27, (R)-3-{[1-(2′-Acetylsulfamoylbiphenyl-4-ylmethyl)-5-propyl-1H-pyrazole-3-carbonyl]amino}-4-(2-chlorophenyl)butyric acid] are not above 10 nM and not above 1000 nM.
For the compound `CCCc1cc(C(=O)N[C@@H](CC(=O)O)Cc2ccccc2Cl)nn1Cc1ccc(-c2ccccc2-c2nnn[nH]2)cn1` [Example 15-2, (R)-4-(2-Chlorophenyl)-3-[(5-propyl-1-{5-[2-(1H-tetrazol-5-yl)phenyl]pyridin-2-ylmethyl}-1H-pyrazole-3-carbonyl)amino]butyric acid], the Ki on human AT1 receptor was not above 100 nM. Also, at NEP enzyme, the IC50 is not above 1000 nM.
Consider `CCOc1cc(C(=O)N[C@@H](CS)Cc2ccccc2)nn1Cc1ccc(-c2ccccc2S(=O)(=O)NC(C)=O)cc1F` [Example 6-1, 1-(2′-Acetylsulfamoyl-3-fluorobiphenyl-4-ylmethyl)-5-ethoxy-1H-pyrazole-3-carboxylic acid ((R)-1-benzyl-2-mercaptoethyl)amide], for which, at human AT1 receptor, the Ki was not above 10 nM. For the same compound, the IC50 at NEP enzyme was not above 100 nM.
As for `CCCc1cc(C(=O)N[C@H](Cc2ccccc2Cl)[C@@H](O)C(=O)O)nn1Cc1ccc(-c2ccccc2S(=O)(=O)NC(C)=O)cc1` [Example 6-9, (2R,3R)-3-{[1-(2′-Acetylsulfamoylbiphenyl-4-ylmethyl)-5-propyl-1H-pyrazole-3-carbonyl]-amino}-4-(2-chlorophenyl)-2-hydroxy-butyric acid], the Ki at human AT1 receptor was not above 10 nM. Moreover, the IC50 on NEP enzyme was not above 100 nM.
The corresponding values for `CCCc1cc(C(=O)N[C@@H](CS)Cc2ccccc2)nn1Cc1ccc(-c2ccccc2S(=O)(=O)NC(C)=O)c(F)c1` [Example 6-6, 1-(2′-Acetylsulfamoyl-2-fluorobiphenyl-4-ylmethyl)-5-propyl-1H-pyrazole-3-carboxylic acid ((R)-1-benzyl-2-mercaptoethyl)amide] are not above 10 nM and not above 100 nM.
For `CCCc1cc(C(=O)N[C@H](Cc2ccccc2)[C@@H](O)C(=O)O)nn1Cc1ccc(-c2ccccc2S(=O)(=O)NC(=O)C(C)(C)O)cc1` [Example 7-14, (2R,3R)-2-Hydroxy-3-({1-[2′-(2-hydroxy-2-methylpropionylsulfamoyl)biphenyl-4-ylmethyl]-5-propyl-1H-pyrazole-3-carbonyl}amino)-4-phenylbutyric acid] the same measures were not above 10 nM and not above 100 nM.
Consider `CCCc1cc(C(=O)N[C@@H](CC(=O)O)Cc2ccccc2C)nn1Cc1ccc(-c2ccccc2-c2nnn[nH]2)cc1` [Example 3-35, (R)-3-({5-Propyl-1-[2′-(1H-tetrazol-5-yl)biphenyl-4-ylmethyl]-1H-pyrazole-3-carbonyl}amino)-4-o-tolylbutyric acid], for which, on human AT1 receptor, the Ki is not above 10 nM. Further, the IC50 at NEP enzyme was not above 10000 nM.
For `CCCc1cc(C(=O)N[C@H](Cc2ccccc2)[C@@H](O)C(=O)O)nn1Cc1ccc(-c2ccccc2S(=O)(=O)NC(=O)NCC)cc1` [Example 7-1, (2R,3R)-3-(1-((2′(N-(ethylcarbamoyl)sulfamoyl)biphenyl-4-yl)methyl)-5-propyl-1H-pyrazole-3-carboxamido)-2-hydroxy-4-phenylbutanoic acid] the same measures were not above 10 nM and not above 1000 nM.
The corresponding values for `CCCc1cc(C(=O)N[C@@H](CC(=O)O)Cc2ccccc2)nn1Cc1ccc(-c2ccccc2-c2nnn[nH]2)cc1F` [Example 3-30, (R)-3-({1-[3-Fluoro-2′-(1H-tetrazol-5-yl)biphenyl-4-ylmethyl]-5-propyl-1H-pyrazole-3-carbonyl}amino)-4-phenylbutyric acid] are not above 10 nM and not above 10000 nM.
`CCCc1cc(C(=O)N[C@@H](CC(=O)NO)Cc2ccccc2)nn1Cc1c(F)cc(-c2ccccc2S(=O)(=O)NC(C)=O)cc1F` [Example 6-20, 1-(2′-Acetylsulfamoyl-3,5-difluorobiphenyl-4-ylmethyl)-5-propyl-1H-pyrazole-3-carboxylic acid ((R)-1-hydroxycarbamoylmethyl-2-phenylethyl)amide]: the Ki at human AT1 receptor is not above 10 nM. In addition, the IC50 at NEP enzyme is not above 100 nM.
For `CCCc1cc(C(=O)N[C@@H](CC(C)C)CN(O)C=O)nn1Cc1ccc(-c2ccccc2S(=O)(=O)NC(C)=O)cc1` [Example 6-23, 1-(2′-Acetylsulfamoyl-biphenyl-4-ylmethyl)-5-propyl-1H-pyrazole-3-carboxylic acid {(S)-1-[(formylhydroxyamino)methyl]-3-methylbutyl}amide] the same measures were not above 10 nM and not above 100 nM.

Source of the values: patent US8350027B2, “Dual-acting pyrazole antihypertensive agents” (Theravance, Inc., priority 2009, dated 2013).
